Measurements taken from paper PMC10830684, “Effect of Oregon grape root extracts on P-glycoprotein mediated transport in in vitro cell lines” (Journal of Pharmacy & Pharmaceutical Sciences, 2024).

Target: P-glycoprotein (MDCKII-MDR1 cells) (Homo sapiens, UniProt P08183)
Assay: Transepithelial transport of berberine and berbamine across MDCKII-MDR1 cells
Assay type: in vitro ADME
Parameters: expressed in transfected cells; host or cells: MDCKII-MDR1 (Madin-Darby canine kidney II cells overexpressing MDR1)
Details: 100 µM
Experimental: Transport of ^3H-CsA and ^3H-digoxin (0.5 µM and 1.0 µCi), MDR1 substrates, were performed using transport buffer consisting of HBSS with 10 mM HEPES and 25 mM D-glucose at a pH of 6.8 for the apical (A) compartment and 7.4 for the basolateral (B) compartment. Experiments were performed at 37°C, 5% CO2, and 95% relative humidity. Cells in the Transwell® inserts were washed 3 times with a transport buffer and allowed to equilibrate for 30 min prior to the addition of test compounds. […] To evaluate the efflux mechanism involved with berberine and berbamine, 100 µM of berberine and berbamine were placed in the donor chamber and 100 µL samples were collected in the receiver chamber at 0, 0.5, 1.0, 1.5, 2.0, 2.5, and 3.0 h and analyzed by HPLC. Each experiment was performed in duplicate and repeated for each condition tested. For experiments performed in “non-sink” conditions, 100 µL aliquots were taken from the donor and receiver chambers at the beginning and from the receiver chamber at 0.5, 1.0, 1.5, 2.0, 2.5, and 3.0 h. An equal volume of 100 µL was replaced in the chamber at each sample time point. […] A 100 µL sample was taken from the donor chamber at 3 h in order to calculate the mass balance of radioactivity to determine if adsorption to the cell culture transport apparatus had occurred. Each sample was placed in 0.9 mL of scintillation fluor (Cytoscint ES, ICN, Cosa Mesa, CA, USA) and read on a Beckman LS 6500 (Palo Alto, CA, USA) scintillation counter for ^3H activity. […]
The apparent permeability (Papp) was calculated using the following equation [40]: Papp=dQ/dt×1/A×C0
Where A is the surface area of the monolayer (4.71 cm^2) and C0 is the initial concentration of radiolabeled probe substrate in the donor compartment. dQ/dt is the slope of the steady-state rate constant. The efflux ratio was determined by dividing the Papp in the B to A direction by the Papp in the A to B direction: Efflux ratio=PappB to A/PappA to B […]

P-glycoprotein (MDCKII-MDR1 cells), sequence (P08183 whole entry): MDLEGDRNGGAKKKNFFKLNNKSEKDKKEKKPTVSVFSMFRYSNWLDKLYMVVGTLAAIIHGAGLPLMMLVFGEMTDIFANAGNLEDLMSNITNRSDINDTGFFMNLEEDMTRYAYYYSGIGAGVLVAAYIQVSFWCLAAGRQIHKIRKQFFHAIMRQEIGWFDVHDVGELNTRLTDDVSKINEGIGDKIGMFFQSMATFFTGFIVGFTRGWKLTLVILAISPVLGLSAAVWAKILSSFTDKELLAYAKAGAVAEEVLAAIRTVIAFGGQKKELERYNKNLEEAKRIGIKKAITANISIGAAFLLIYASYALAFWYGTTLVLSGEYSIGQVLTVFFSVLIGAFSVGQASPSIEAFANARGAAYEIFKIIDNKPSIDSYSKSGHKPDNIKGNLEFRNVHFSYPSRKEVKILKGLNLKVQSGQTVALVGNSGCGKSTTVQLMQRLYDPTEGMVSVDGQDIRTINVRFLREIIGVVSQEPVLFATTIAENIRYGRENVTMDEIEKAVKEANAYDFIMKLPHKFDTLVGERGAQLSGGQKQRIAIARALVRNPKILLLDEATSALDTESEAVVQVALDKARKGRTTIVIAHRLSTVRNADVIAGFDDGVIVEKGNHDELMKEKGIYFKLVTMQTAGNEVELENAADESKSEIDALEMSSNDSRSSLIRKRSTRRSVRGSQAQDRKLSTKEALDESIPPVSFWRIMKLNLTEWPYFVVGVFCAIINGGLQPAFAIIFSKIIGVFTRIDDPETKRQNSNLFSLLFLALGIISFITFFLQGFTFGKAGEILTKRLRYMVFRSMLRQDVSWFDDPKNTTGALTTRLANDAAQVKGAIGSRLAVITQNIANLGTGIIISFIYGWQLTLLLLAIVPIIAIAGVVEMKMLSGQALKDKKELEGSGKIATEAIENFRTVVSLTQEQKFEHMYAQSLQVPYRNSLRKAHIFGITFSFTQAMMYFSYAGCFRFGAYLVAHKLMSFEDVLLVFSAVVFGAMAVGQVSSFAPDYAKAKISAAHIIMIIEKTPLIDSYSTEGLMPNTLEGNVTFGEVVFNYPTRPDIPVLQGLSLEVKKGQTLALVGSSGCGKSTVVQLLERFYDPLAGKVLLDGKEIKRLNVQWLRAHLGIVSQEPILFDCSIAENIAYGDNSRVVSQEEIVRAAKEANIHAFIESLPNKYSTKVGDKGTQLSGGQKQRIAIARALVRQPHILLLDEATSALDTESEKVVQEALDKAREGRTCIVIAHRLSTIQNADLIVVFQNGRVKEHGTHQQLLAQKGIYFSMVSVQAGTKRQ

In the case of `COc1ccc2cc3[n+](cc2c1OC)CCc1cc2c(cc1-3)OCO2.[Cl-]` [Berberine, Berberine chloride], the “Papp A to B direction” value is reported as 1.3 ×10⁻⁶ cm/s, the “Papp B to A direction” value is reported as 15.6 ×10⁻⁶ cm/s and the “fold increase of Papp B to A compared with A to B” value is reported as “approximately 12 fold”.
